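These data come from cells grown in 96-well plates and exposed to compound for 48 hours at five concentrations. Abbreviation: GI50, concentration required for 50% inhibition of growth. TGI marks complete inhibition of growth.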
Assays:
Experiment in all cases: NCI tumour cell line growth inhibition, 48 h
[1] = tested on: HL-60(TB) leukemia
[2] = tested on: SF-295 CNS
[3] = tested on: HCT-116 colon
[4] = tested on: NCI-H226 lung
[5] = tested on: NCI/ADR-RES ovarian
[6] = tested on: UO-31 renal
[7] = tested on: ACHN renal
[8] = tested on: MALME-3M melanoma
[9] = tested on: NCI-H522 lung
[10] = tested on: SF-268 CNS

Cc1ccc(N=C2SC(c3ccc(C)cc3)(c3ccc(C)cc3)c3ccccc32)cc1
TGI [1]: > 100 µM
TGI [2]: > 100 µM
TGI [3]: > 100 µM
TGI [4]: > 100 µM
TGI [5]: > 100 µM
TGI [6]: > 100 µM
TGI [7]: > 100 µM
TGI [8]: > 100 µM
TGI [9]: > 100 µM
TGI [10]: > 100 µM

CCN(CC)CCCC(C)Nc1c(-c2ccccc2)cnc2cc(Cl)ccc12 (stereo not given)
GI50 [1]: 5.29 µM
TGI [1]: 23.8 µM
GI50 [2]: 2.78 µM
TGI [2]: 9 µM
GI50 [3]: 3.72 µM
TGI [3]: 15.2 µM
GI50 [4]: 15.7 µM
TGI [4]: 31.6 µM
GI50 [5]: 11.6 µM
TGI [5]: 28.3 µM
GI50 [6]: 1.12 µM
TGI [6]: 8.83 µM
GI50 [7]: 13 µM
TGI [7]: 36.6 µM
GI50 [8]: 1.93 µM
TGI [8]: 4.62 µM
GI50 [9]: 7.22 µM
TGI [9]: 19.2 µM
GI50 [10]: 10.3 µM
TGI [10]: 27.3 µM

COc1cc(/C=C/[N+](=O)[O-])cc(OC)c1OC
GI50 [1]: 4.95 µM
TGI [1]: 55.9 µM
GI50 [2]: 8.52 µM
TGI [2]: 23.8 µM
GI50 [3]: 1.89 µM
TGI [3]: 3.56 µM
GI50 [4]: 2.1 µM
TGI [4]: 5.5 µM
GI50 [5]: 3.43 µM
TGI [5]: 36.7 µM
GI50 [6]: 2.05 µM
TGI [6]: 3.91 µM
GI50 [7]: 1.83 µM
TGI [7]: 3.46 µM
GI50 [8]: 2.29 µM
TGI [8]: 6.06 µM
GI50 [9]: 1.79 µM
TGI [9]: 3.57 µM
GI50 [10]: 4.39 µM
TGI [10]: 15.2 µM

Cc1cc(NC(=O)c2cnc(N3CCN(CCOCCOCCOCCOCCC(=O)N[C@H](C(=O)N4C[C@H](O)C[C@H]4C(=O)N[C@@H](C)c4ccc(-c5scnc5C)cc4)C(C)(C)C)CC3)cn2)c2ncccc2c1
GI50 [1]: 2.3 µM
TGI [1]: 5.71 µM
GI50 [2]: 2.23 µM
TGI [2]: 6.31 µM
GI50 [3]: 1.79 µM
TGI [3]: 3.38 µM
GI50 [4]: 28.7 µM
TGI [4]: > 100 µM
GI50 [5]: > 100 µM
TGI [5]: > 100 µM
GI50 [6]: 12.7 µM
TGI [6]: > 100 µM
GI50 [7]: 12 µM
TGI [7]: > 100 µM
GI50 [8]: 1.76 µM
TGI [8]: 3.68 µM
GI50 [9]: 1.96 µM
TGI [9]: 6.16 µM
GI50 [10]: 3.02 µM
TGI [10]: 18.3 µM

CN(c1ccc(C#N)c(Cl)c1)C1CCC(NC(=O)c2ccc(N3CCN(C4CN(c5ccc6c(c5)C(=O)N(C5CCC(=O)NC5=O)C6=O)C4)CC3)cc2)CC1 (stereo not given)
GI50 [1]: > 100 µM
TGI [1]: > 100 µM
GI50 [2]: > 100 µM
TGI [2]: > 100 µM
GI50 [3]: > 100 µM
TGI [3]: > 100 µM
GI50 [4]: > 100 µM
TGI [4]: > 100 µM
GI50 [5]: > 100 µM
TGI [5]: > 100 µM
GI50 [6]: > 100 µM
TGI [6]: > 100 µM
GI50 [7]: > 100 µM
TGI [7]: > 100 µM
GI50 [8]: 48.8 µM
TGI [8]: > 100 µM
GI50 [9]: > 100 µM
TGI [9]: > 100 µM
GI50 [10]: > 100 µM
TGI [10]: > 100 µM

CCN(C(=O)CN1CCN(c2cc3c(cc2F)c(=O)c(C(=O)O)cn3CC)CC1)c1nc(-c2ccccc2)cs1
GI50 [1]: 0.199 µM
TGI [1]: 0.47 µM
GI50 [2]: 0.235 µM
TGI [2]: 0.746 µM
GI50 [3]: 0.378 µM
TGI [3]: > 100 µM
GI50 [4]: 0.477 µM
TGI [4]: > 100 µM
GI50 [5]: 0.331 µM
TGI [5]: > 100 µM
GI50 [6]: 0.266 µM
TGI [6]: > 100 µM
GI50 [7]: 0.33 µM
TGI [7]: > 100 µM
GI50 [8]: 0.214 µM
TGI [8]: 0.66 µM
GI50 [9]: 0.259 µM
TGI [9]: 0.813 µM
GI50 [10]: 0.43 µM
TGI [10]: > 100 µM

O=C1CCC(N2C(=O)c3cccc(NCCCC4CCN(CCNC(=O)c5cc6c(o5)C(=O)c5ccccc5C6=O)CC4)c3C2=O)C(=O)N1 (stereo not given)
GI50 [1]: 0.858 µM
TGI [1]: 6.16 µM
GI50 [2]: 0.252 µM
TGI [2]: 0.711 µM
GI50 [3]: 0.465 µM
TGI [3]: 2.38 µM
GI50 [4]: 1.42 µM
TGI [4]: 3.76 µM
GI50 [5]: 2.89 µM
TGI [5]: 14.7 µM
GI50 [6]: 1.37 µM
TGI [6]: 2.91 µM
GI50 [7]: 1.29 µM
TGI [7]: 2.56 µM
GI50 [8]: 0.14 µM
TGI [8]: 0.284 µM
GI50 [9]: 1.5 µM
TGI [9]: 3.27 µM
GI50 [10]: 2.06 µM
TGI [10]: 7.65 µM

O=c1c(O)cccn1CCCN(CCCn1cccc(O)c1=O)CCn1cccc(O)c1=O
GI50 [1]: 5.54 µM
TGI [1]: 55.3 µM
GI50 [2]: 3.63 µM
TGI [2]: > 100 µM
GI50 [3]: 2.85 µM
TGI [3]: > 100 µM
GI50 [4]: 2.27 µM
TGI [4]: 61.8 µM
GI50 [5]: > 100 µM
TGI [5]: > 100 µM
GI50 [6]: 7.6 µM
TGI [6]: > 100 µM
GI50 [7]: 7.15 µM
TGI [7]: > 100 µM
GI50 [8]: 9.72 µM
TGI [8]: 85.9 µM
GI50 [9]: 7.35 µM
TGI [9]: > 100 µM
GI50 [10]: 1.9 µM
TGI [10]: > 100 µM

N#CC(C#N)=C(N)/C(C#N)=C/c1ccc2[nH]ccc2c1
TGI [1]: > 100 µM
TGI [2]: > 100 µM
TGI [3]: > 100 µM
TGI [4]: > 100 µM
TGI [5]: > 100 µM
TGI [6]: > 100 µM
TGI [7]: > 100 µM
TGI [8]: > 100 µM
TGI [9]: > 100 µM
TGI [10]: > 100 µM

COc1ccc(Oc2ccccc2NC(=O)CNC(=O)c2cccc3ccccc23)cc1
GI50 [1]: 0.613 µM
TGI [1]: 1.71 µM
GI50 [2]: 0.402 µM
TGI [2]: > 25 µM
GI50 [3]: 0.61 µM
TGI [3]: > 25 µM
GI50 [4]: 4.3 µM
TGI [4]: > 25 µM
GI50 [5]: 0.427 µM
TGI [5]: > 25 µM
GI50 [6]: 1.49 µM
TGI [6]: > 25 µM
GI50 [7]: 1.53 µM
TGI [7]: > 25 µM
GI50 [8]: > 25 µM
TGI [8]: > 25 µM
GI50 [9]: 0.193 µM
TGI [9]: > 25 µM
GI50 [10]: 2.03 µM
TGI [10]: > 25 µM
